biological target: T1, FXR ligand binding domain (GST-FXR LBD fusion protein, human FXR aa 193-473) (Homo sapiens, UniProt Q96RI1); assay: Radioligand binding assay (scintillation proximity, radioligand displacement); details: 40 nM GST-FXR LBD on SPA beads, test compound 6×10^−9 M to 2.5×10^−5 M, read-out: h-IC50 Binding
T1 construct: fused on or other part: Glutathione-S-transferase (GST) fused N-terminally to the FXR LBD, used to capture the protein on glutathione SPA beads
T1 sequence (Q96RI1 211-486 limits assumed): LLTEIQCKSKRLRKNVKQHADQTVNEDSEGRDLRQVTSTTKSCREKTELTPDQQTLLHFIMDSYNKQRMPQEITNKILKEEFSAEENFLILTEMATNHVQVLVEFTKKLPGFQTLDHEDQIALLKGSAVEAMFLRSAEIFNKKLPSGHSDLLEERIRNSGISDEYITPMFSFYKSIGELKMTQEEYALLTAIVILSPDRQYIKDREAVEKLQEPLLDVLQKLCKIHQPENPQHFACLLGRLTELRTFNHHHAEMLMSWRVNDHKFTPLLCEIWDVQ
Description: The following tests were carried out in order to determine the activity of the compounds of formula (I).
To accomplish this, the portions of the sequences encoding the FXR LBD were amplified by polymerase chain reaction (PCR) from a full-length clone by PCR and then subcloned into the plasmid vectors. The final clone was verified by DNA sequence analysis.
The induction, expression, and subsequent purification of GST-LBD fusion protein was performed in E. coli strain BL21(pLysS) cells by standard methods (Current Protocols in Molecular Biology, Wiley Press, ed. Ausubel et al.).
Radioligand Binding Assay
Binding of test substances to the FXR ligand binding domain was assessed in a radioligand displacement assay. The assay was performed in a buffer consisting of 50 mM Hepes, pH 7.4, 10 mM NaCl, 5 mM MgCl2, 0.01% CHAPS. For each reaction well in a 96-well plate, 40 nM of GST-FXR LBD fusion protein was bound to 10 μg glutathione yttrium silicate SPA beads (Pharmacia Amersham) in a final volume of 50 μl by shaking. A radioligand (e.g., 20 nM of 2,N-dicyclohexyl-2-[2-(2,4 dimethoxy-phenyl)-benzoimidazol-1-yl]-acetamide) and test compounds were added, and scintillation proximity counting was performed. All binding assays were performed in 96-well plates and the amount of bound ligand was measured on a Packard TopCount using OptiPlates (Packard).

Compound	IC50
O=C(O)C1CCC(NCC(C2CCCCC2)n2c(-c3ccc(Cl)cc3)nc3cc(F)c(F)cc32)CC1 (single isomer, unassigned) [Example 137, (+) or (−)-4-{2-[2-(4-Chloro-phenyl)-5,6-difluoro-benzoimidazol-1-yl]-(2-cis-cyclohexyl-ethylamino}-cyclohexanecarboxylic acid]	6.1 µM
O=C(O)C1CCC(NCC(C2CCCCC2)n2c(-c3ccc(Cl)cc3)nc3cc(F)c(F)cc32)CC1 (single isomer, unassigned) [Example 138, (+) or (−)-4-{2-[2-(4-Chloro-phenyl)-5,6-difluoro-benzoimidazol-1-yl]-(2-trans-cyclohexyl-ethylamino}-cyclohexanecarboxylic acid]	0.3 µM
O=C(O)c1ccc(OCC(C2CCCCC2)n2c(-c3ccc(Cl)cc3)nc3cc(F)c(F)cc32)c(F)c1 (single isomer, unassigned; (+)) [Example 9, (+)-4-{2-[2-(4-Chloro-phenyl)-5,6-difluoro-benzoimidazol-1-yl]-2-cyclohexyl-ethoxy}-3-fluoro-benzoic acid]	0.1 µM
Cc1cc(C(=O)O)ccc1OCC(C1CCCCC1)n1c(-c2ccc(Cl)cc2)nc2cc(F)c(F)cc21 (single isomer, unassigned; (+)) [Example 13, (+)-4-{2-[2-(4-Chloro-phenyl)-5,6-difluoro-benzoimidazol-1-yl]-2-cyclohexyl-ethoxy}-3-methyl-benzoic acid]	0.1 µM
O=C(O)c1cnc(OCC(C2CCCCC2)n2c(-c3ccc(Cl)cc3)nc3cc(F)c(F)cc32)c2ccsc12 (single isomer, unassigned; (+)) [Example 27, (+)-4-{2-[2-(4-Chloro-phenyl)-5,6-difluoro-benzoimidazol-1-yl]-2-cyclohexyl-ethoxy}-thieno[3,2-c]pyridine-7-carboxylic acid]	0.3 µM
O=C(O)c1ccc(OCC(C2CCCCC2)n2c(-c3ccc(Cl)cc3)nc3cc(F)c(F)cc32)c(C(F)(F)F)c1 (single isomer, unassigned; (+)) [Example 40, (+)-4-{2-[2-(4-Chloro-phenyl)-5,6-difluoro-benzoimidazol-1-yl]-2-cyclohexyl-ethoxy}-3-trifluoromethyl-benzoic acid]	0.1 µM
O=C(O)c1c(F)cc(OCC(C2CCCCC2)n2c(-c3ccc(Cl)cc3)nc3cc(F)c(F)cc32)cc1F (single isomer, unassigned; (+)) [Example 43, (+)-4-{2-[2-(4-Chloro-phenyl)-5,6-difluoro-benzoimidazol-1-yl]-2-cyclohexyl-ethoxy}-2,6-difluoro-benzoic acid]	0.7 µM
CC(C)(Oc1ccc(OCC(C2CCCCC2)n2c(-c3ccc(Cl)cc3)nc3cc(F)c(F)cc32)nc1)C(=O)O (single isomer, unassigned; (+)) [Example 48, (+)-2-(6-{2-[2-(4-Chloro-phenyl)-5,6-difluoro-benzoimidazol-1-yl]-2-cyclohexyl-ethoxy}-pyridin-3-yloxy)-2-methyl-propionic acid]	0.5 µM
O=C(O)C1(Oc2ccc(OCC(C3CCCCC3)n3c(-c4ccc(Cl)cc4)nc4cc(F)c(F)cc43)nc2)CC1 (single isomer, unassigned; (+)) [Example 52, (+)-1-(6-{2-[2-(4-Chloro-phenyl)-5,6-difluoro-benzoimidazol-1-yl]-2-cyclohexyl-ethoxy}-pyridin-3-yloxy)-cyclopropanecarboxylic acid]	0.08 µM
Cc1cc(C(=O)O)cc(C)c1OCC(C1CCCCC1)n1c(-c2ccc(Cl)cc2)nc2cc(F)c(F)cc21 (single isomer, unassigned; (+)) [Example 54, (+)-4-{2-[2-(4-Chloro-phenyl)-5,6-difluoro-benzoimidazol-1-yl]-2-cyclohexyl-ethoxy}-3,5-dimethyl-benzoic acid]	0.1 µM
Fc1cc2nc(-c3ccc(Cl)cc3)n(C(COc3ccc(-c4nnn[nH]4)cn3)C3CCCCC3)c2cc1F (single isomer, unassigned; (+)) [Example 62, (+)-2-(4-Chloro-phenyl)-1-{1-cyclohexyl-2-[5-(1H-tetrazol-5-yl)-pyridin-2-yloxy]-ethyl}-5,6-difluoro-1H-benzoimidazole]	0.2 µM
O=C(O)c1ccc(COCC(C2CCCCC2)n2c(-c3ccc(Cl)cc3)nc3cc(F)c(F)cc32)c(F)c1 (single isomer, unassigned; (+)) [Example 64, (+)-4-{2-[2-(4-Chloro-phenyl)-5,6-difluoro-benzoimidazol-yl]-2-cyclohexyl-ethoxymethyl}-3-fluoro-benzoic]	0.3 µM
O=C(O)c1ccc(COCC(C2CCCCC2)n2c(-c3ccc(Cl)cc3)nc3cc(F)c(F)cc32)cc1 (single isomer, unassigned; (+)) [Example 69, (+)-4-{2-[2-(4-Chloro-phenyl)-5,6-difluoro-benzoimidazol-1-yl]-2-cyclohexyl-ethoxymethyl}-benzoic acid]	0.7 µM
COc1ccc(-c2nc3cc(F)c(F)cc3n2C(COc2ccc(C(=O)O)cn2)C2CCCCC2)c(OC)n1 (single isomer, unassigned; (+)) [Example 74, (+)-6-{2-Cyclohexyl-2-[2-(2,6-dimethoxy-pyridin-3-yl)-5,6-difluoro-benzoimidazol-1-yl]-ethoxy}-nicotinic acid]	0.5 µM

Other lines, results leading:

IC50	Compound
0.05 µM	Fc1cc2nc(-c3ccc(Cl)cc3)n(C(COc3ccc(-c4nnn[nH]4)cc3F)C3CCCCC3)c2cc1F (single isomer, unassigned; (+)) [Example 80, (+)-2-(4-Chloro-phenyl)-1-{1-cyclohexyl-2-[2-fluoro-4-(1H-tetrazol-5-yl)-phenoxy]-ethyl}-5,6-difluoro-1H-benzoimidazole]
0.04 µM	O=C(O)c1cc(F)c(OCC(C2CCCCC2)n2c(-c3ccc(Cl)cc3)nc3cc(F)c(F)cc32)c(F)c1 (single isomer, unassigned; (+)) [Example 87, (+)-4-{2-[2-(4-Chloro-phenyl)-5,6-difluoro-benzoimidazol-1-yl]-2-cyclohexyl-ethoxy}-3,5-difluoro-benzoic acid]
0.03 µM	O=C(O)c1ccc(OCC(C2CCCCC2)n2c(-c3ccc(Cl)cc3)nc3cc(F)c(F)cc32)nc1 (single isomer, unassigned; (+)) [Example 20, (+)-6-{2-[2-(4-Chloro-phenyl)-5,6-difluoro-benzoimidazol-1-yl]-2-cyclohexyl-ethoxy}-nicotinic acid]
0.03 µM	O=C(O)c1cc(F)c(OCC(C2CCCCC2)n2c(-c3ccc(Cl)cc3)nc3cc(F)c(F)cc32)c(Cl)c1 (single isomer, unassigned; (+)) [Example 78, (+)-3-Chloro-4-{2-[2-(4-chloro-phenyl)-5,6-difluoro-benzoimidazol-1-yl]-2-cyclohexyl-ethoxy}-5-fluoro-benzoic acid]
0.02 µM	O=C(O)c1cnc(OCC(C2CCCCC2)n2c(-c3ccc(Cl)cc3)nc3cc(F)c(F)cc32)c(Cl)c1 (single isomer, unassigned; (+)) [Example 23, (+)-5-Chloro-6-{2-[2-(4-chloro-phenyl)-5,6-difluoro-benzoimidazol-1-yl]-2-cyclohexyl-ethoxy}-nicotinic acid]
0.002 µM	CC(C)(Oc1c(F)cc(-c2nnn[nH]2)cc1F)C(C1CCCCC1)n1c(-c2ccc(Cl)cc2)nc2cc(F)c(F)cc21 (single isomer, unassigned) [Example 115, (+) or (−)-2-(4-Chloro-phenyl)-1-[1-cyclohexyl-2-[2,6-difluoro-4-(1H-tetrazol-5-yl)-phenoxy]-2-methyl-propyl]-5,6-difluoro-1H-benzoimidazole]
0.001 µM	Cc1cc(-c2nnn[nH]2)cc(C)c1OCC(C1CCCCC1)n1c(-c2ccc(Cl)cc2)nc2cc(F)c(F)cc21 (single isomer, unassigned; (+)) [Example 72, (+)-2-(4-Chloro-phenyl)-1-{1-cyclohexyl-2-[2,6-dimethyl-4-(1H-tetrazol-5-yl)-phenoxy]-ethyl}-5,6-difluoro-1H-benzoimidazole]
0.0002 µM	COc1ccc(-c2nc3cc(F)c(F)cc3n2C(COc2c(C)cc(C(=O)O)cc2C)C2CCCCC2)c(OC)n1 (single isomer, unassigned; (+)) [Example 83, (+)-4-{2-Cyclohexyl-2-[2-(2,6-dimethoxy-pyridin-3-yl)-5,6-difluoro-benzoimidazol-1-yl]-ethoxy}-3,5-dimethyl-benzoic acid]

same assay, conditions: h-IC50 Binding, 40 nM GST-FXR LBD on SPA beads, test compound 6×10^−9 M to 2.5×10^−5 M

Compound	IC50
O=C(O)c1ccc(OCC(C2CCCCC2)n2c(-c3ccc(Cl)cc3)nc3cc(F)c(F)cc32)cc1 (single isomer, unassigned; (+)) [Example 5, (+)-4-{2-[2-(4-Chloro-phenyl)-5,6-difluoro-benzoimidazol-1-yl]-2-cyclohexyl-ethoxy}-benzoic acid]	0.04 µM
